Assay results published in article PMC10706475 (International Journal of Molecular Sciences, 2023).
“And” between values parts separate entries of the source, which are not always exact repeats. Equal entries are not always repeated. Where two headings read alike, the source gives them in different places.

Legend:
κ-opioid receptors (KOR) = biological target: T1, κ-opioid receptors (KOR) (Rattus norvegicus, UniProt P34975); assay: biochemical; type: binding; conditions: read-out: κ-Opiod Receptor Ki
T1 construct: expressed in transfected cells
T1 sequence (P34975 whole entry): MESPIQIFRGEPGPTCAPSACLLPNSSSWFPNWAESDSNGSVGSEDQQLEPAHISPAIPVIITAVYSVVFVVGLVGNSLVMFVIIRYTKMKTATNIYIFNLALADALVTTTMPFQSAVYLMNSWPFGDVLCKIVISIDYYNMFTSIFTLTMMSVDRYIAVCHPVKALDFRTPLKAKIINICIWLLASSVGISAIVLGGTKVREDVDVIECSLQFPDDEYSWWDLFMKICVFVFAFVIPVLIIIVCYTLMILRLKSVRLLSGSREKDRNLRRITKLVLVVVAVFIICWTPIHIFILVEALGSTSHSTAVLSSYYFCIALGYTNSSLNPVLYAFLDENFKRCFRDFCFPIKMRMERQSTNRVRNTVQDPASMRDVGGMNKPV

5-HT2A = biological target: T2, 5-HT2A (Homo sapiens, UniProt P28223); assay: radioligand binding, 5-HT2A; conditions: [3H] Ketanserin, cloned human receptor; read-out: 5HT2A binding affinity (Ki)
T2 construct: expressed in transfected cells

GluN1/GluN2A = GluN1/GluN2A (Rattus norvegicus, UniProt P35439+Q00959); assay: [3H] MK801 binding assay, transfected HEK293 cells, GluN1/GluN2A
Sequence of GluN1/GluN2A (Q00959 23-1464, other chains not shown): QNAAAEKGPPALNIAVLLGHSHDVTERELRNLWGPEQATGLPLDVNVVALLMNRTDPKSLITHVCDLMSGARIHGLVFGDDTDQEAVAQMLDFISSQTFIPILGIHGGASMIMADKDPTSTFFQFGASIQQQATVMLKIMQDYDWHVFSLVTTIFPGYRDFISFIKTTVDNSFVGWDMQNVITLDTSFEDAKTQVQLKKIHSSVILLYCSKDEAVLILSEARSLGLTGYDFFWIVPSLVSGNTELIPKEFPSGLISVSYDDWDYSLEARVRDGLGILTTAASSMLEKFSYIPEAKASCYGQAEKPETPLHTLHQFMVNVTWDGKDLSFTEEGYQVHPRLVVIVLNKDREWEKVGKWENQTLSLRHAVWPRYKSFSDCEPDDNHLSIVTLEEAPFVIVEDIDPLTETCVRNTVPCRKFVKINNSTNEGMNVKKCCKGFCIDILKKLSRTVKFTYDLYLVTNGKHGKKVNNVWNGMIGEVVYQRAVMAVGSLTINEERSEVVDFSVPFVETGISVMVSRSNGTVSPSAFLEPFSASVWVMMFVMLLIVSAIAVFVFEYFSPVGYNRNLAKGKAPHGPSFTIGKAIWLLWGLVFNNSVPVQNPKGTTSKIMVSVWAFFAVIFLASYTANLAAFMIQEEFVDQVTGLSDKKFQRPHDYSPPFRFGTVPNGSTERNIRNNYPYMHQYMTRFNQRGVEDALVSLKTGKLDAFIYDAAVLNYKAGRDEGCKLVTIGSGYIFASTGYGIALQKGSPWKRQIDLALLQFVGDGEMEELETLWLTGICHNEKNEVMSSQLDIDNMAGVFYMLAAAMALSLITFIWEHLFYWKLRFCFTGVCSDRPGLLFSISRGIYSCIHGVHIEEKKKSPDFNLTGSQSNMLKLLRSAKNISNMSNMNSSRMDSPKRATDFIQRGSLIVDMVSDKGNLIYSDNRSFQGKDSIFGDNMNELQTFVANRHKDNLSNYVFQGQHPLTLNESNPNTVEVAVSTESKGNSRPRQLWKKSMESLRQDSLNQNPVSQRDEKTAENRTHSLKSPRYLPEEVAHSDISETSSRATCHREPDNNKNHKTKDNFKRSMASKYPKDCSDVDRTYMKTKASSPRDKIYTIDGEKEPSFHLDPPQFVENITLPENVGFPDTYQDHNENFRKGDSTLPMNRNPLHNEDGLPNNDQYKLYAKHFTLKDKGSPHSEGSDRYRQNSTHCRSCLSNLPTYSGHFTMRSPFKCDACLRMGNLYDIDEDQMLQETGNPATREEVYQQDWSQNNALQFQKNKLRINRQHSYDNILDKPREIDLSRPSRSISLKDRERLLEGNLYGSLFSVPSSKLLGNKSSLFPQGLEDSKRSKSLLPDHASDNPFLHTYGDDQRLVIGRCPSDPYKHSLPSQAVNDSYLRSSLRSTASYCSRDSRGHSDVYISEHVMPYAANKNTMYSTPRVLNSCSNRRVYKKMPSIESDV

NeuN = type: in vivo, mice
[1] = biological target: T3, Dopamine Transporter (DAT) (Homo sapiens, UniProt Q01959); assay: radioligand binding, Dopamine Transporter; conditions: [3H] WIN35428, cloned human transporter
T3 construct: expressed in transfected cells
T3 sequence (Q01959 whole entry): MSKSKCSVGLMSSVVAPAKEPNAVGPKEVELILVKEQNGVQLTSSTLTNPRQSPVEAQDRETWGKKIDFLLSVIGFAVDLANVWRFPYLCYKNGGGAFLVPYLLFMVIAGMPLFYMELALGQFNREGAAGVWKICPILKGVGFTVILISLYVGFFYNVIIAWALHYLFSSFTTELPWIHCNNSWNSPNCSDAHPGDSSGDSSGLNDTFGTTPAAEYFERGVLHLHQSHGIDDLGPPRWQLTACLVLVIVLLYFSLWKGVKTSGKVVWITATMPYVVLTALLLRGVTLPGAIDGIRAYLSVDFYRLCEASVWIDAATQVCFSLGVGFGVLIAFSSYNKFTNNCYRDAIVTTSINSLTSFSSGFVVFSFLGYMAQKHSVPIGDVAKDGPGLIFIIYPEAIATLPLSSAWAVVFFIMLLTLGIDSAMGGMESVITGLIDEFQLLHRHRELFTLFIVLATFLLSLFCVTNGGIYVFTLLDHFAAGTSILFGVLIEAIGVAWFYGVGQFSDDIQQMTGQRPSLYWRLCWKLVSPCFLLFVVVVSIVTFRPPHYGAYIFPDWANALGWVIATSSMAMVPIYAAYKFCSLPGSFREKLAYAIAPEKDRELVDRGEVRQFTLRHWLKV

[2] = locomotion and motor coordination; type: in vivo, mice; conditions: treatment with ZA-II-05 in vanadium-induced neurotoxicity
nitric oxide (NO) = type: in vivo, mice
Sigma2 = biological target: T4, Sigma2 (Rattus norvegicus, UniProt Q5U3Y7); assay: radioligand binding, Sigma2
T4 construct: Sigma2; DTG; Rat; PC12; endogenous in cells; host or cells: PC12
T4 sequence (Q5U3Y7 whole entry): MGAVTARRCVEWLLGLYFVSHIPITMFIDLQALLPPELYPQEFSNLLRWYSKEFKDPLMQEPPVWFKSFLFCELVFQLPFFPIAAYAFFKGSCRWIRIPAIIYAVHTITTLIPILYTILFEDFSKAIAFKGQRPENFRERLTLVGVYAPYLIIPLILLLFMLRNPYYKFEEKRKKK

[3] = tested on: organotypic rat hippocampal slices; type: cell-based
IBA1 = type: in vivo, mice; conditions: ZA-II-05 treated groups vs […] group
[4] = tested on: dendritic density and arborizations; type: in vivo, mice; conditions: coadministration of ZA-II-05 with […], vs […]-treated group
Sigma1 = biological target: T5, Sigma1 (Rattus norvegicus, UniProt Q9R0C9); assay: radioligand binding, Sigma1; conditions: [3H] Pentazocine (+), rat brain; read-out: Sigma 1 binding affinity (Ki)
T5 construct: Sigma1; Pentazocine (+); Rat; Brain; from tissue; host or cells: rat brain
T5 sequence (Q9R0C9 whole entry): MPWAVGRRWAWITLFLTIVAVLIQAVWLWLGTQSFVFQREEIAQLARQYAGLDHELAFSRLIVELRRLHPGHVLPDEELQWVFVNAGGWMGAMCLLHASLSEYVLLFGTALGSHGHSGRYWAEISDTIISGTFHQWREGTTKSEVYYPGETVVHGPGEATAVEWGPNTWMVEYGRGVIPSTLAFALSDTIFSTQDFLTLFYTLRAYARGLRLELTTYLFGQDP

[5] = biological target: T6, Norepinephrine Transporter (NET) (Homo sapiens, UniProt P23975); assay: radioligand binding, Norepinephrine Transporter; conditions: [3H] Nisoxetine, cloned human transporter; read-out: NET binding affinity (Ki)
T6 construct: expressed in transfected cells
T6 sequence (P23975 whole entry): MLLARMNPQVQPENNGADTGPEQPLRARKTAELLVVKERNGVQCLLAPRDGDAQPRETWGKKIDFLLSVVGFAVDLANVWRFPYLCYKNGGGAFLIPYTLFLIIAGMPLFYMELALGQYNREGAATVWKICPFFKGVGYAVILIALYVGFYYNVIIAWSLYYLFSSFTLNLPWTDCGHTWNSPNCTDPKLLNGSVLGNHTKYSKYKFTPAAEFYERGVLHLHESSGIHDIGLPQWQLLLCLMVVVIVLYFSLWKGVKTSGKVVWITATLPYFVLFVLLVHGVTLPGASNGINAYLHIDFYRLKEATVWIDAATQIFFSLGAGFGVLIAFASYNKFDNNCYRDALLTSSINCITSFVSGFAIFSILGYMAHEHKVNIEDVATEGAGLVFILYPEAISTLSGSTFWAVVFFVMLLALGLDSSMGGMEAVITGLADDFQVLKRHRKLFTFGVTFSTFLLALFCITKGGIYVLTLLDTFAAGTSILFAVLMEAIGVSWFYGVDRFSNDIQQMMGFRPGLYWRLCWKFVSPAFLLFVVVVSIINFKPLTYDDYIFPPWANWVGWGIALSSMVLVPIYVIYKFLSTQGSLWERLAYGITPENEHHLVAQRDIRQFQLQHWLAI

Dopamine 1 (D1) = biological target: T7, Dopamine 1 (D1) (Homo sapiens, UniProt P21728); assay: radioligand binding, Dopamine 1 (D1); conditions: [3H] SCH23390, cloned human receptor; read-out: D1 binding affinity (Ki)
T7 construct: expressed in transfected cells

[6] = tested on: tumor necrosis factor-alpha (TNF-α)
µ-opioid receptors (MOR) = biological target: T8, µ-opioid receptors (MOR) (Homo sapiens, UniProt P35372); assay: radioligand binding, µ-opioid receptor; conditions: read-out: μ-Opiod Receptor Ki
T8 construct: expressed in transfected cells
T8 sequence (P35372 whole entry): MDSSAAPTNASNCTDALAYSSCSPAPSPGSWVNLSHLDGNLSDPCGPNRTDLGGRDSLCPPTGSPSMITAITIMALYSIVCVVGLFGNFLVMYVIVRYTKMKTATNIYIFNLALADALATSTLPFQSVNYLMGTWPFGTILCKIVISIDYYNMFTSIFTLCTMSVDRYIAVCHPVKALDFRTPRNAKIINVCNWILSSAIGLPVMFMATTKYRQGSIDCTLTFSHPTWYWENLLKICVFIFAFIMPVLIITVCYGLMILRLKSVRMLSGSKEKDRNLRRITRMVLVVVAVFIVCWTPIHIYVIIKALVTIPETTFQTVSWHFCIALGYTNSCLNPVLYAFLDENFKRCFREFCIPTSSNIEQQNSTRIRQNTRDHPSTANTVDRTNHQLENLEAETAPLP

[7] = biological target: T9, Serotonin Transporter (SERT) (Homo sapiens, UniProt P31645); assay: radioligand binding, Serotonin Transporter; conditions: [3H] Citalopram, cloned human transporter; read-out: SERT binding affinity (Ki)
T9 construct: expressed in transfected cells
T9 sequence (P31645 whole entry): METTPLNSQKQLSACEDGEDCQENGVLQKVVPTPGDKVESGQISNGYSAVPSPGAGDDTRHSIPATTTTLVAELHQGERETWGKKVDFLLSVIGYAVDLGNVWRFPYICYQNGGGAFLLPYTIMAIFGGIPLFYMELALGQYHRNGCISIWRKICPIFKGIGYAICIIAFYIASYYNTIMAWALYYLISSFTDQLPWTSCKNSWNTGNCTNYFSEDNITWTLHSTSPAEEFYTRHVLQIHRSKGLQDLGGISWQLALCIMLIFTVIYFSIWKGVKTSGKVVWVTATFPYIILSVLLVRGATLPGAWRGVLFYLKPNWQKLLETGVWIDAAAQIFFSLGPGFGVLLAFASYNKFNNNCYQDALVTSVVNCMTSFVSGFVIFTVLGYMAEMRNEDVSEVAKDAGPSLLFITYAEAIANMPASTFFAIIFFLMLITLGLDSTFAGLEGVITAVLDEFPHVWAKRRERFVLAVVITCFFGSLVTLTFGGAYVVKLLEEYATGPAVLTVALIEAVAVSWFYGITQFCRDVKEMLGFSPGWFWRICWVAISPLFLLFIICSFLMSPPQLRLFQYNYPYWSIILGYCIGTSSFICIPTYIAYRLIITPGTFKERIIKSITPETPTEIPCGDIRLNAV

Vitamin C = type: in vivo, mice
H2O2 = tested on: H2O2; set-up: species or system mice; conditions: mouse, in vivo
[8] = in vivo activity (i.p.), test not specified; conditions: 100 and 300 mg/kg (i.p.); test not named
Method: Sodium metavanadate (NaO3V) (Sigma, St. Louis, MO, USA) was utilized in this study. Novel NMDA-Receptor antagonist, ZA-II-05, is a bicyclic aryl cyclohexylamine, designed and synthesized in our lab, fully active at 100 and 300 mg/kg (i.p.). Several tests established the safety of the compound at dosages envisioned in this study.

Non-protein thiol (NPT) = type: in vivo, mice
GFAP = tested on: GFAP; set-up: species or system mice; conditions: mouse, in vivo
total thiol (PT) = type: in vivo, mice
[9] = tested on: Myelin Basic Protein (MBP); set-up: species or system mice; conditions: mouse, in vivo
D2 = biological target: T10, D2 (Homo sapiens, UniProt P14416); assay: radioligand binding, D2; conditions: [3H] N-Methylspiperone, cloned human receptor; read-out: D2 binding affinity (Ki)
T10 construct: expressed in transfected cells
T10 sequence (P14416 whole entry): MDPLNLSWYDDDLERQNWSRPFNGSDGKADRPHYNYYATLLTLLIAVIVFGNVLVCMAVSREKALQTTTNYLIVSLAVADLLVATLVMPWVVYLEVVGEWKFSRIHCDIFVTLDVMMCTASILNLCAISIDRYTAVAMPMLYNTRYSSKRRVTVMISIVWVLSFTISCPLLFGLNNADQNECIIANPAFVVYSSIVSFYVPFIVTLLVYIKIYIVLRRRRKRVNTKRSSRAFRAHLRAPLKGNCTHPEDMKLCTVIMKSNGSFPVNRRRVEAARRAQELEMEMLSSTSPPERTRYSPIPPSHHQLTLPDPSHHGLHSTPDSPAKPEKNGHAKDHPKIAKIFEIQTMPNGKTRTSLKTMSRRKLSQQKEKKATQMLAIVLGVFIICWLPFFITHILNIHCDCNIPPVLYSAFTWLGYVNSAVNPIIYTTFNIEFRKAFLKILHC

[10] = ZA-II-05 only 100 mg/kg i.p. every 72 h, one month, mouse brain

**Q.** For `Fc1ccc(C2(NCCCOC3CCCCO3)CC3CCC2C3)cc1` (stereo not shown) [ZA-II-05], which Ki (κ-opioid receptors (KOR)) is on record?
**A.** 1.24 µM

**Q.** And the Ki (5-HT2A)?
**A.** > 10 µM

**Q.** What about the “difference in affinity GluN1/GluN2A vs GluN1/GluN2B” value (GluN1/GluN2A) of the same molecule?
**A.** No significant difference in affinity

**Q.** What about the “NeuN viable cells / neuronal number” value (NeuN; ZA-II-05 only 100 mg/kg (ZA treatment only), CA1 and PFC) of the same molecule?
**A.** decreased viable cells in CA1 but increased neuronal number and vitality in the prefrontal cortex

**Q.** And the “NeuN cellular pathology, prefrontal cortex” value (NeuN; mouse, in vivo, 100 mg/kg)?
**A.** significantly less cellular pathology in the prefrontal cortex compared to the vanadium-exposed groups

**Q.** What about the “NeuN, loss of apical dendrites of pyramidal cells, CA1” value (NeuN; mouse, in vivo, 100 mg/kg) of the same molecule?
**A.** reversal effect relative to the vanadium-exposed group

**Q.** What about the “NeuN, neuronal degeneration of pyramidal cells, CA3” value (NeuN; mouse, in vivo, 100 mg/kg) of the same molecule?
**A.** reversal effect with reduced cellular toxicity

**Q.** What about the Ki [1] of the same molecule?
**A.** 3.16 µM

**Q.** And the “locomotion and motor coordination” value [2]?
**A.** enhanced locomotion and improved motor coordination

**Q.** What about the NO (nitric oxide (NO); [10]) of the same molecule?
**A.** 0.34±0.03 μmole/mg protein

**Q.** And the NO (nitric oxide (NO); mouse, in vivo)?
**A.** 0.32±0.03 μmole/mg protein

**Q.** What about the Ki (Sigma2) of the same molecule?
**A.** 0.0055 µM

**Q.** What about the “cell death in vanadium-treated hippocampal slices (propidium iodide uptake)” value [3] of the same molecule?
**A.** gradual reduction in cell death with increasing concentrations

**Q.** What about the “concentration of peak protection against vanadium-induced cell death” value [3] of the same molecule?
**A.** 100 µM

**Q.** What about the “microglial activation (IBA1)” value (IBA1) of the same molecule?
**A.** quiescence and recovery from activation

**Q.** And the “dendritic length and arborization (Golgi stain)” value [4]?
**A.** successfully reversed these dendritic changes induced by vanadium neurotoxicity

**Q.** And the Ki (Sigma1)?
**A.** > 10 µM

**Q.** And the Ki [5]?
**A.** > 10 µM

**Q.** What about the Ki (Dopamine 1 (D1)) of the same molecule?
**A.** > 10 µM

**Q.** And the TNF-α expression ([6]; ZA-II-05 only 100 mg/kg, all brain regions vs other groups)?
**A.** upregulated the expression of TNF-α significantly (p < 0.05) in all the brain regions

**Q.** And the “cytoplasmic TNF-α expression” value ([6]; […] + ZA-II-05-treated groups vs […] group)?
**A.** reduced cytoplasmic TNF-α expression compared to vanadium group

**Q.** And the Ki (µ-opioid receptors (MOR))?
**A.** 3.04 µM

**Q.** And the Ki [7]?
**A.** > 10 µM

**Q.** What about the “VIT. C” value (Vitamin C; [10]) of the same molecule?
**A.** 0.17±0.02 nmoles/mg protein

**Q.** And the “VIT. C” value (Vitamin C; mouse, in vivo)?
**A.** 0.20±0.04 nmoles/mg protein

**Q.** What about the H2O2 (H2O2) of the same molecule?
**A.** 38.89±2.67 and 46.02±0.29

**Q.** And the activity in vivo [8]?
**A.** fully active

**Q.** And the NPT (Non-protein thiol (NPT); [10])?
**A.** 26.98±5.89 nmoles/mg protein

**Q.** What about the NPT (Non-protein thiol (NPT); mouse, in vivo) of the same molecule?
**A.** 29.06±3.80 nmoles/mg protein

**Q.** And the “astrocyte reactivity (GFAP)” value (GFAP)?
**A.** attenuation of astrocyte reactivity

**Q.** And the THIOL (total thiol (PT); [10])?
**A.** 28.62±6.72 nmoles/mg/protein

**Q.** And the THIOL (total thiol (PT); mouse, in vivo)?
**A.** 25.06±4.68 nmoles/mg/protein

**Q.** What about the “expression of myelin content (MBP)” value [9] of the same molecule?
**A.** significantly higher expression of myelin content and preservation of axonal dendritic integrity in the deep cortical layers

**Q.** What about the Ki (D2) of the same molecule?
**A.** > 10 µM
